Source: ChEMBL document CHEMBL1201862, “PubChem BioAssay data set” (2004)
One block for each compound: values may come before it. Calls of active or inactive are those of the source.

Tests used:
[1] = target: Sphingosine 1-phosphate receptor 1 (Homo sapiens, UniProt P21453); assay: Fluorescence-based counterscreen assay for S1P4 agonists: Cell-based dose response high throughput screening assay to identify agonists of the Sphingosine 1-Phosphate Receptor 1 (S1P1). [Related pubchem assays (depositor defined):AID1509, AID1523, AID1801, AID463107, AID463118, AID463119, AID463122, AID463123, AID463129, AID463225, AID504400, AID504460]; assay type: functional
Chain of Sphingosine 1-phosphate receptor 1 (P21453 whole entry): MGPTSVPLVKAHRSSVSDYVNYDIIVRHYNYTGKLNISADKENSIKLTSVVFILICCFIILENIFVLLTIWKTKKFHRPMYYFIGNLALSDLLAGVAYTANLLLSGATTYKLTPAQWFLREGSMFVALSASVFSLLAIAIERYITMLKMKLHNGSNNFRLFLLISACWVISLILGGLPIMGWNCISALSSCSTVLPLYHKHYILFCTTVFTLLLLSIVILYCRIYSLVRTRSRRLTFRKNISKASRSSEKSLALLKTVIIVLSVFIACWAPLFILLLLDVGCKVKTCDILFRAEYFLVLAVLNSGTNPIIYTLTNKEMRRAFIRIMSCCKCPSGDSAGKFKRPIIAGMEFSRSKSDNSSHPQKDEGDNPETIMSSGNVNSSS

[2] = target: Sphingosine 1-phosphate receptor 4 (Homo sapiens, UniProt O95977); assay: Fluorescence dose response cell-based high throughput screening assay for agonists of the Sphingosine 1-Phosphate Receptor 4 (S1P4). [Related pubchem assays: 1509 (Primary screen.), 1523 (Confirmation screen in triplicates.)]; assay type: functional
Chain of Sphingosine 1-phosphate receptor 4 (O95977 whole entry, the tested form may be a part): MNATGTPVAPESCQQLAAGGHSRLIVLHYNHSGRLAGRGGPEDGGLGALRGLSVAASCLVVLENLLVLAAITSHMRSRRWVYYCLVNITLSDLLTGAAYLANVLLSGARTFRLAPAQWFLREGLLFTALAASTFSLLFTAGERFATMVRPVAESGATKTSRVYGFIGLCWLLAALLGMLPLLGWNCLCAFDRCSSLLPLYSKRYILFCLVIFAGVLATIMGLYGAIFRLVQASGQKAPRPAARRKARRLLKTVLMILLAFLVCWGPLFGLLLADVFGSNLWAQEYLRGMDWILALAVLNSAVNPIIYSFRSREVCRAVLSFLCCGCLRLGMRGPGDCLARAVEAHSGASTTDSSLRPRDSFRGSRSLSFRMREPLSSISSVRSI

[3] = target: T1, E3 ubiquitin-protein ligase XIAP (Homo sapiens, UniProt P98170); assay: SAR analysis of Antagonists of XIAP-Bir3 domain of IAP-family anti-apoptotic proteins. [Related pubchem assays (depositor defined):AID1018, AID1449, AID1513, AID1514, AID1638]
T1 sequence (P98170 whole entry, the tested form may be a part): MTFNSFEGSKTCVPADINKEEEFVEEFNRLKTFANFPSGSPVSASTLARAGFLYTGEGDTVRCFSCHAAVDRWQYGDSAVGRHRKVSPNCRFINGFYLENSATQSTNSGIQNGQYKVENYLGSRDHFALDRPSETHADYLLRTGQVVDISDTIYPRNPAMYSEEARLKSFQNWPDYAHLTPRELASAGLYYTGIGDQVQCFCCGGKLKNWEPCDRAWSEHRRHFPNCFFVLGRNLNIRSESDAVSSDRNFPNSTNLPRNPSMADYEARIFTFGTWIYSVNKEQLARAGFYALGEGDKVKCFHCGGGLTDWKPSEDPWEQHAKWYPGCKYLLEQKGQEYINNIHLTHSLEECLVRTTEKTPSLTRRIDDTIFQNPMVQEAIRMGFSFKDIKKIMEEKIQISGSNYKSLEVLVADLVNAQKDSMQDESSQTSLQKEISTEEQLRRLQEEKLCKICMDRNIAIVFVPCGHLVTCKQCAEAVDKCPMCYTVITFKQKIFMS

[4] = target: T1, E3 ubiquitin-protein ligase XIAP; assay: SAR analysis of Antagonists of IAP-family anti-apoptotic proteins. [Related pubchem assays (depositor defined):AID1018, AID1449, AID1513, AID1514, AID1638]
Cannabinoid receptor 1 [5] = target: T2, Cannabinoid receptor 1 (Homo sapiens, UniProt P21554); assay: SAR analysis of agonists of the Cannabinoid Receptor 1 using an Image-Based Assay - Set 2. [Related pubchem assays (depositor defined):AID2013, AID2026]; assay type: functional
T2 sequence (P21554 whole entry): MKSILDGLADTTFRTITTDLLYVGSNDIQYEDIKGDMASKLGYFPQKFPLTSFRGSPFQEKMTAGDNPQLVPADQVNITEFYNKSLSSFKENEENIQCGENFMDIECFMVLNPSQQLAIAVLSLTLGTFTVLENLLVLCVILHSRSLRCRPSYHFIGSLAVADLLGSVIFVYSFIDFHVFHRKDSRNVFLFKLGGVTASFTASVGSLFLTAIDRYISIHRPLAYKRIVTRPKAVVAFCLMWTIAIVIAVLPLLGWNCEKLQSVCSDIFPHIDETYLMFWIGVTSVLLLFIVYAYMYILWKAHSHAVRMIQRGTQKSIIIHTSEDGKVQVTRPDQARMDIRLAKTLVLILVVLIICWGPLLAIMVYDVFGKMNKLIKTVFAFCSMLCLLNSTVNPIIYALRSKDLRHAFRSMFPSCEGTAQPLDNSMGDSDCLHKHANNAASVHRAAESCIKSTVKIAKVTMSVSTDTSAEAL

[6] = target: T3, G-protein coupled receptor 35 (Homo sapiens, UniProt Q9HC97); assay: SAR analysis of Antagonists of the GPR35 Receptor using an Image-Based Assay - Set 3. [Related pubchem assays (depositor defined):AID2013, AID2026]; assay type: functional
T3 sequence (Q9HC97 whole entry): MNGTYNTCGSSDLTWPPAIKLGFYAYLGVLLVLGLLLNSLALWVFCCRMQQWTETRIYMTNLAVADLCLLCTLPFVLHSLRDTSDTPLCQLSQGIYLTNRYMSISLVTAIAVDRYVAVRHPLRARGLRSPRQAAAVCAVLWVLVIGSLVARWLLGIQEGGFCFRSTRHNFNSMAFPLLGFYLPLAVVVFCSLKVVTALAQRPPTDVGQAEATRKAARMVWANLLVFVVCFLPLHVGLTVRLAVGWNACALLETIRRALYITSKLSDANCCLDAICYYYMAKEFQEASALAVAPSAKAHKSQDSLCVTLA

Cannabinoid receptor 2 [7] = target: T4, Cannabinoid receptor 2 (Homo sapiens, UniProt P34972); assay: SAR analysis of agonists of the Cannabinoid Receptor 2 using an Image-Based Assay. [Related pubchem assays (depositor defined):AID2013, AID2026]; assay type: functional
T4 sequence (P34972 whole entry): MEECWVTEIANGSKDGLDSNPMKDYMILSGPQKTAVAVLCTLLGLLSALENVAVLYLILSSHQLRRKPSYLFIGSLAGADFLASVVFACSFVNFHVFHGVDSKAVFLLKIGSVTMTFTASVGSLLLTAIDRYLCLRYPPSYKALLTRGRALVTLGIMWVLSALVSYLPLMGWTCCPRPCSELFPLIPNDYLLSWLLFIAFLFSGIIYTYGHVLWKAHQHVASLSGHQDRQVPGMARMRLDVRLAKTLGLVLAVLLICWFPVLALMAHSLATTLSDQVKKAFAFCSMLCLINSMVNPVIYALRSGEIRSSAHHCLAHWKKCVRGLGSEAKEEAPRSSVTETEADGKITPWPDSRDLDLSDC

[8] = target: T5, G-protein coupled receptor 55 (Homo sapiens, UniProt Q9Y2T6); assay: inhibition of LPI-stimulated GPR55 beta-arrestin translocation – imaging, U2OS, beta-arrestin-GFP, LPI agonist, primary screen (AID 2013); assay type: functional;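 note: antagonist potency measured as reduced agonist-driven arrestin aggregation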
T5 sequence (Q9Y2T6 whole entry): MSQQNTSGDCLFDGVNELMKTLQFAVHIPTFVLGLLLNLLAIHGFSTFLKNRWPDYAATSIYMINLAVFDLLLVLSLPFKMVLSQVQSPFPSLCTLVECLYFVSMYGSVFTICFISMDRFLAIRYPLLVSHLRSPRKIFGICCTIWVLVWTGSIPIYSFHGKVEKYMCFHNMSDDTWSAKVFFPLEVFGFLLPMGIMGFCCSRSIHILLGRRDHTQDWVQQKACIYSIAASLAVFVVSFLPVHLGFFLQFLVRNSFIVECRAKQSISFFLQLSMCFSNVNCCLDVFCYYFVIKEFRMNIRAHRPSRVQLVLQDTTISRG

Cannabinoid receptor 2 [9] = target: T4, Cannabinoid receptor 2; assay: SAR analysis of antagonists of the Cannabinoid Receptor 2 using an Image-Based Assay. [Related pubchem assays (depositor defined):AID2013, AID2026]; assay type: functional
[10] = target: T5, G-protein coupled receptor 55; assay: blockade of LPI-induced GPR55 arrestin translocation – imaging, U2OS, beta-arrestin-GFP, LPI agonist, set 2, SAR follow-up (AID 2820); assay type: functional
[11] = target: T3, G-protein coupled receptor 35; assay: SAR analysis of Agonists of the GPR35 Receptor using an Image-Based Assay - Set 2. [Related pubchem assays (depositor defined):AID2013, AID2026]; assay type: functional
Cannabinoid receptor 1 [12] = target: T2, Cannabinoid receptor 1; assay: SAR analysis of antagonists of the Cannabinoid Receptor 1 using an Image-Based Assay - Set 2. [Related pubchem assays (depositor defined):AID2013, AID2026]; assay type: functional
[13] = target: T6, Carboxy-terminal domain RNA polymerase II polypeptide A small phosphatase 1 (Homo sapiens, UniProt Q9GZU7); assay: CTDSP1 inhibitors, concentration-response, biochemical, absorbance readout, ultra-high-throughput screen actives (AID 540297); assay type: functional
T6 sequence (Q9GZU7 whole entry): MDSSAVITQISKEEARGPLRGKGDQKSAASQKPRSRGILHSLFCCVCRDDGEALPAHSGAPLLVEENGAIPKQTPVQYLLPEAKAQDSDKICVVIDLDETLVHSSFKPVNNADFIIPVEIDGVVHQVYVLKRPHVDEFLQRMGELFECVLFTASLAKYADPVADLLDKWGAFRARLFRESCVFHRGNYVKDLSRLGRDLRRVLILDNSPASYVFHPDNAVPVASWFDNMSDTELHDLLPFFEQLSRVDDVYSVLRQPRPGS

[14] = viability of HCT116 lacking mutant beta-catenin – cell-based, human colon tumor, dose response (AID 1045); assay type: functional;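 note: HCT116 colon tumor cells with beta catenin knocked out; cells exposed to compound for 60 hours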
[15] = Trypanosoma cruzi growth suppression in host cells – NIH3T3 host cells, beta-gal luminescence, confirmation (AID 2044); assay type: functional, cell-based;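 note: intracellular parasites grown in NIH/3T3 mouse fibroblasts as host cells; luminescent beta-galactosidase reporter signal from transgenic T. cruzi replicating inside host cells; inhibitors lower the luminescence signal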
Estrogen receptor = target: T7, Estrogen receptor (Homo sapiens, UniProt P03372);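 note: potency for inhibiting coactivator peptide recruitment to the receptor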
T7 sequence (P03372 whole entry): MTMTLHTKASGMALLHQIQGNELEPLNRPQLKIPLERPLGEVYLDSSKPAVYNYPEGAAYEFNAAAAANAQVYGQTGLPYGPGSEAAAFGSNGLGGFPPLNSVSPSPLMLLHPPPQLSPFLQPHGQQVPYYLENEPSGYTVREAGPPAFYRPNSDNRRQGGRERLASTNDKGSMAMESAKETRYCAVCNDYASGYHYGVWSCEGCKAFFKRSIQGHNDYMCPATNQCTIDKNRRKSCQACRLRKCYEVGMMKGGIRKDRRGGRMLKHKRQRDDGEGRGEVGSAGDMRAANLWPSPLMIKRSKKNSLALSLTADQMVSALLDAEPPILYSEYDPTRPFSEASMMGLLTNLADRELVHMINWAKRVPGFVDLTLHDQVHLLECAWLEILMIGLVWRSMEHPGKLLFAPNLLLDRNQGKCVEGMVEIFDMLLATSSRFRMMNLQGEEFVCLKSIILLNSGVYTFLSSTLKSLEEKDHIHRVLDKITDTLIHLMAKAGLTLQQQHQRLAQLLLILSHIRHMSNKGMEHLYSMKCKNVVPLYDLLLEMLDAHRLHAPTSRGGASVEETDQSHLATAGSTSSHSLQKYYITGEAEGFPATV

[16] = viability of PTEN-deleted HCT116 cells – cell-based, HCT116 PTEN knockout, dose response (AID 1047); assay type: functional;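 note: HCT116 colon tumor cells with PTEN knocked out; cells exposed to compound for 60 hours before readout; potency for loss of cell viability measured by luminescence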
Coagulation factor XII = target: T8, Coagulation factor XII (Homo sapiens, UniProt P00748); assay: Factor XIIa Dose Response Confirmation from Single Well HTS. [Related pubchem assays (depositor defined):AID701]; assay type: functional
T8 sequence (P00748 whole entry): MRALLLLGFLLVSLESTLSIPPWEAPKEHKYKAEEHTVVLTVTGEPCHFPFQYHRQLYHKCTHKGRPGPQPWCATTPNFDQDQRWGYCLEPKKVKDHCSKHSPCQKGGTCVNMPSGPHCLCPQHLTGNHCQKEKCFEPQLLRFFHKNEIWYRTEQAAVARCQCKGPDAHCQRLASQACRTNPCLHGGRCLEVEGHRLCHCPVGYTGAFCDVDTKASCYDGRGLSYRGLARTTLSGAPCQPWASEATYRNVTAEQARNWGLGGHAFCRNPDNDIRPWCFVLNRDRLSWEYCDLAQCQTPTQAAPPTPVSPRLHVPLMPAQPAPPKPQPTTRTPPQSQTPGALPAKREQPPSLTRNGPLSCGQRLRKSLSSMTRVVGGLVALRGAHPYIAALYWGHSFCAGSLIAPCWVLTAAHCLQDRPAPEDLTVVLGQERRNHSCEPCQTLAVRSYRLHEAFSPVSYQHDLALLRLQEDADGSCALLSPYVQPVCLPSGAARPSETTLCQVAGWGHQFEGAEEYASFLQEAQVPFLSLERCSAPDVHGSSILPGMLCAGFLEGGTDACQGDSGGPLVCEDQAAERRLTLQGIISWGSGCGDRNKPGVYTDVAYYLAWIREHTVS

[17] = NIH3T3 cell viability loss – ATP luminescence, mouse fibroblasts, counter-screen, dose response (AID 2010); assay type: functional, cell-based;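 note: cells exposed to compound for about 90 hours before reading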
[18] = target: T9, Kappa-type opioid receptor (Homo sapiens, UniProt P41145); assay: SAR analysis of small molecule antagonists of the kappa opioid receptor via a luminescent beta-arrestin assay - Set 4. [Related pubchem assays (depositor defined):AID1777, AID1778, AID1785, AID1786, AID1966, AID2133, AID2136, AID2285]; assay type: functional
T9 sequence (P41145 whole entry): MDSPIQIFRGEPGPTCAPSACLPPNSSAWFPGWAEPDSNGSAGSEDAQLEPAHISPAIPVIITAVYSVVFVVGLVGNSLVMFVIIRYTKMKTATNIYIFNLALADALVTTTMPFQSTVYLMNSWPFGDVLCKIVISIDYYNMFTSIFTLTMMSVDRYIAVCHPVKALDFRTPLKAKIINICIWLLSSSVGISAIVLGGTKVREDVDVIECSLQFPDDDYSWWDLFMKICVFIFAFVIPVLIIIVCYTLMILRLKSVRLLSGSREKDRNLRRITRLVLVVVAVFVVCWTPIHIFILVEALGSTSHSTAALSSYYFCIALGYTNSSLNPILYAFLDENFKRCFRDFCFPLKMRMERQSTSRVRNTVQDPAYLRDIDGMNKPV

[19] = target: T9, Kappa-type opioid receptor; assay: SAR analysis of small molecule antagonists of the kappa opioid receptor via a luminescent beta-arrestin assay - Set 5. [Related pubchem assays (depositor defined):AID1778, AID1785]; assay type: functional
[20] = target: T3, G-protein coupled receptor 35; assay: SAR analysis of Agonists of the GPR35 Receptor using an Image-Based Assay - Set 3. [Related pubchem assays (depositor defined):AID1961, AID1965]; assay type: functional
[21] = target: T5, G-protein coupled receptor 55; assay: SAR analysis of selective Agonists of GPR55 using an Image-Based Assay - Set 2. [Related pubchem assays (depositor defined):AID1961, AID1965]; assay type: functional
Cannabinoid receptor 1 [22] = target: T2, Cannabinoid receptor 1; assay: SAR analysis of antagonists of the Cannabinoid Receptor 1 using an Image-Based Assay - Set 3. [Related pubchem assays (depositor defined):AID1961, AID1965]; assay type: functional
Cannabinoid receptor 2 [23] = target: T4, Cannabinoid receptor 2; assay: SAR analysis of agonists of the Cannabinoid Receptor 2 using an Image-Based Assay - Set 2. [Related pubchem assays (depositor defined):AID1961, AID1965]; assay type: functional
Cannabinoid receptor 1 [24] = target: T2, Cannabinoid receptor 1; assay: SAR analysis of agonists of the Cannabinoid Receptor 1 using an Image-Based Assay - Set 3. [Related pubchem assays (depositor defined):AID1961, AID1965]; assay type: functional
[25] = target: T3, G-protein coupled receptor 35; assay: SAR analysis of Antagonists of the GPR35 Receptor using an Image-Based Assay - Set 4. [Related pubchem assays (depositor defined):[…]]; assay type: functional
Cannabinoid receptor 2 [26] = target: T4, Cannabinoid receptor 2; assay: SAR analysis of antagonists of the Cannabinoid Receptor 2 using an Image-Based Assay - Set 2. [Related pubchem assays (depositor defined):AID1961, AID1965]; assay type: functional
[27] = target: Delta-type opioid receptor (Homo sapiens, UniProt P41143); assay: SAR Analysis of Agonists of the DOR Receptor using an Image-Based Assay - Set 3. [Related pubchem assays (depositor defined):AID1777, AID1786]; assay type: functional
Chain of Delta-type opioid receptor (P41143 whole entry): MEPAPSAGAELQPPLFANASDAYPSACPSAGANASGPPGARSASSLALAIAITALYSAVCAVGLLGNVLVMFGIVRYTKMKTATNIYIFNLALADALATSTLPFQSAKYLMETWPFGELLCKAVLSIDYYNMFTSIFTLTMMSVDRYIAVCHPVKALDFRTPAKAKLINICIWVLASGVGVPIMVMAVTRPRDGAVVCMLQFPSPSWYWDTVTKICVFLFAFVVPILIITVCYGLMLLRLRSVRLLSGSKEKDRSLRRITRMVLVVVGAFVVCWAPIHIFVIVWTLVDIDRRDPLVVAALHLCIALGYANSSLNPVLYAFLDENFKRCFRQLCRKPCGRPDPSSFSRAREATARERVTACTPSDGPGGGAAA

[28] = target: T9, Kappa-type opioid receptor; assay: SAR analysis of small molecule agonists of the kappa opioid receptor via a luminescent beta-arrestin assay - Set 3. [Related pubchem assays (depositor defined):AID1777, AID1785, AID1786, AID1966, AID2133, AID2136, AID2284, AID2500]; assay type: functional
[29] = target: T9, Kappa-type opioid receptor; assay: kappa opioid receptor activation by imaging – image-based, set 3, SAR follow-up (AID 488833); assay type: functional
Mu-type opioid receptor = Mu-type opioid receptor (Homo sapiens, UniProt P35372); assay: SAR Analysis of Agonists of the MOR Receptor using an Image-Based Assay - Set 3. [Related pubchem assays (depositor defined):AID1777, AID1785, AID1786, AID1966, AID2133, AID2136, AID2284, AID2285, AID2352]; assay type: functional
Chain of Mu-type opioid receptor (P35372 whole entry): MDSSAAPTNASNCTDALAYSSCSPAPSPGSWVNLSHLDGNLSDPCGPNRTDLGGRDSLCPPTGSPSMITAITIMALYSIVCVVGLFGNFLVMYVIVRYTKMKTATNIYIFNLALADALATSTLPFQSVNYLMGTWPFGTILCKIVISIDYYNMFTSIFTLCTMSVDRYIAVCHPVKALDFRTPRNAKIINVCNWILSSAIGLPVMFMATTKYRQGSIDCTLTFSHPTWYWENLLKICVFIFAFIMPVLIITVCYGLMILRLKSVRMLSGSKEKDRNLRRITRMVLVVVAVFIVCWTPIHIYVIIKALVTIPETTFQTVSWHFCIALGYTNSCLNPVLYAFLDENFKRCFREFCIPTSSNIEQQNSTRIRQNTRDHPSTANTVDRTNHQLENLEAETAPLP

[30] = Luminescence Cell-Based Dose Retest to Confirm Inhibitors of Cancer Stem Cells. [Related pubchem assays (depositor defined):AID2717, AID2721]; assay type: functional; conditions: Homo sapiens
[31] = target: DNA damage-inducible transcript 3 protein (Mus musculus, UniProt P35639); assay type: functional, Cricetulus griseus
Chain of DNA damage-inducible transcript 3 protein (P35639 whole entry): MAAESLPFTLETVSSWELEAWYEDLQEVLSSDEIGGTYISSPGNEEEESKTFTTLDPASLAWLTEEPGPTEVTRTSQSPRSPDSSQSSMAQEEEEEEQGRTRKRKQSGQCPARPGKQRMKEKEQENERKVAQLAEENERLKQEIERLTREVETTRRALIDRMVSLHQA
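Throughout, for AC50: cells exposed to compound for roughly 70 hours or longer before luminescence read.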

EC50 (Cannabinoid receptor 1 [5]): > 32 µM (inactive)
IC50 [6]: > 32 µM (inactive)
EC50 (Cannabinoid receptor 2 [7]): > 32 µM (inactive)
IC50 [8]: 0.869 µM (active)
IC50 (Cannabinoid receptor 2 [9]): > 32 µM (inactive)
IC50 [10]: 1.44 µM (active)
EC50 [11]: > 32 µM (inactive)
IC50 (Cannabinoid receptor 1 [12]): 24.1 µM (inactive)
SMILES: Cc1cccc(-c2cc(C(=O)Nc3sc(C)c(C)c3C(N)=O)c3ccccc3n2)c1

IC50 [18]: > 20 µM (inactive)
IC50 [19]: > 20 µM (inactive)
SMILES: Cc1ccc(S(=O)(=O)NCc2cccc(C(=O)NCCN(Cc3ccccc3)C(C)C)c2)cc1

EC50 [27]: > 32 µM (inactive)
EC50 [28]: 3.04 µM (active)
EC50 [29]: 1.73 µM (active)
EC50 (Mu-type opioid receptor): > 32 µM (inactive)
SMILES: Fc1ccc(CSc2nnc(-c3ccccn3)n2Cc2cccs2)c(F)c1F

Second part, the compound before the results:

SMILES: CC(C)c1cc(C(=O)OCC(=O)NC(=O)NCc2ccco2)c(O)c(C(C)C)c1
EC50 [1]: > 49.8 µM (inactive)
EC50 [2]: > 49.8 µM (not active)

SMILES: CN[C@@H](C)C(=O)N[C@H](C(=O)N1CCC[C@H]1C(=O)Nc1ccc2ncccc2c1)C(C)C
IC50 [3]: 94.9 µM (active)
IC50 [4]: 11.4 µM (active)

SMILES: Cc1ccc2[nH]c(/C(C#N)=C\c3ccc(N4CCCCC4)c([N+](=O)[O-])c3)nc2c1
IC50 [13]: 2.45 µM (active)
EC50 [14]: 22 µM (active)
EC50 [15]: 2 µM (active)
IC50 (Estrogen receptor): 4.23 µM (active)
EC50 [16]: 19.4 µM (active)
IC50 (Coagulation factor XII): 1.02 µM (active)
EC50 [17]: > 60 µM (inconclusive)

SMILES: CCN(CC)S(=O)(=O)c1ccc(N2CCC(C)CC2)c(C(=O)N2CCN(c3ccccc3)CC2)c1
EC50 [20]: > 32 µM (inactive)
EC50 [21]: > 32 µM (inactive)
IC50 (Cannabinoid receptor 1 [22]): > 32 µM (inactive)
EC50 (Cannabinoid receptor 2 [23]): > 32 µM (inactive)
EC50 (Cannabinoid receptor 1 [24]): > 32 µM (inactive)
IC50 [25]: > 32 µM (inactive)
IC50 (Cannabinoid receptor 2 [26]): > 32 µM (inactive)

SMILES: Cc1ccc(COc2ccc(Br)cc2/C=N/O)cc1
AC50 [30]: 6.11 µM (active)
Absolute IC50 (CHOP) [31]: 10 µM
